The source of these data is PubChem BioAssay AID248 (DTP/NCI, 2004).

Each structure is given as a SMILES string. Values joined by “and” are separate entries in the source; they are usually repeats but may differ in a detail not shown here. Equal entries are not always repeated. Toxic doses and inconclusive results are not listed.

For this assay, the system named is L1210 leukemia ip in BDF1 mice, survival T/C. Briefly: NCI In Vivo Anticancer Drug Screen. Data for tumor model L1210 Leukemia (intraperitoneal) in B6D2F1 (BDF1) mice. The note with it: higher = longer survival. Summed up: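 Value reflects the ratio of survival in compound-treated mice to survival in vehicle-treated controls, with both groups carrying the same transplanted tumor.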

The mark [1] stands for this setting: endpoint: mean survival time, dose: 200.0 mg/kg/injection, schedule: Q01DX001 (ip), vehicle: carboxymethylcellulose (CMC).
Setting [2] is: endpoint: mean survival time, dose: 100.0 mg/kg/injection, schedule: Q04DX003 (ip), vehicle: saline with Tween-80.
[3] abbreviates: endpoint: mean survival time, dose: 200.0 mg/kg/injection, schedule: Q04DX003 (ip), vehicle: saline with Tween-80.
Setting [4] is: endpoint: mean survival time, dose: 400.0 mg/kg/injection, schedule: Q04DX003 (ip), vehicle: saline with Tween-80.
Where [5] appears, read: endpoint: mean survival time, dose: 100.0 mg/kg/injection, schedule: Q01DX009 (ip), vehicle: Klucel (hydroxypropylcellulose) (HPC).
[6] abbreviates: endpoint: mean survival time, dose: 200.0 mg/kg/injection, schedule: Q01DX009 (ip), vehicle: Klucel (hydroxypropylcellulose) (HPC).
[7] abbreviates: endpoint: mean survival time, dose: 400.0 mg/kg/injection, schedule: Q01DX009 (ip), vehicle: Klucel (hydroxypropylcellulose) (HPC).
Where [8] appears, read: endpoint: mean survival time, dose: 100.0 mg/kg/injection, schedule: Q01DX001 (ip), vehicle: carboxymethylcellulose (CMC).
Setting [9] is: endpoint: mean survival time, dose: 100.0 mg/kg/injection, schedule: Q01DX009 (ip), vehicle: carboxymethylcellulose (CMC).
Where [10] appears, read: endpoint: mean survival time, dose: 200.0 mg/kg/injection, schedule: Q01DX009 (ip), vehicle: carboxymethylcellulose (CMC).
Where [11] appears, read: endpoint: mean survival time, dose: 400.0 mg/kg/injection, schedule: Q01DX009 (ip), vehicle: carboxymethylcellulose (CMC).
Setting [12] is: endpoint: mean survival time, dose: 100.0 mg/kg/injection, schedule: Q01DX009 (ip), vehicle: saline with Tween-80.
Where [13] appears, read: endpoint: mean survival time, dose: 100.0 mg/kg/injection, schedule: Q04DX003 (ip), vehicle: Klucel (hydroxypropylcellulose) (HPC).
The mark [14] stands for this setting: endpoint: mean survival time, dose: 200.0 mg/kg/injection, schedule: Q01DX009 (ip), vehicle: saline with Tween-80.
Setting [15] is: endpoint: mean survival time, dose: 200.0 mg/kg/injection, schedule: Q04DX003 (ip), vehicle: Klucel (hydroxypropylcellulose) (HPC).
The mark [16] stands for this setting: endpoint: mean survival time, dose: 400.0 mg/kg/injection, schedule: Q01DX009 (ip), vehicle: saline with Tween-80.
Where [17] appears, read: endpoint: mean survival time, dose: 400.0 mg/kg/injection, schedule: Q04DX003 (ip), vehicle: Klucel (hydroxypropylcellulose) (HPC).
[18] abbreviates: endpoint: mean survival time, dose: 100.0 mg/kg/injection, schedule: Q01DX001 (ip), vehicle: saline.
The mark [19] stands for this setting: endpoint: mean survival time, dose: 200.0 mg/kg/injection, schedule: Q01DX001 (ip), vehicle: saline.
Setting [20] is: endpoint: mean survival time, dose: 400.0 mg/kg/injection, schedule: Q01DX001 (ip), vehicle: saline.

Turning to `CCOC(C)c1ccccc1` (stereo not drawn), the T/C under setting [1] was 95 % of control.
On to `CC1=CCC2(C)CCC(C(C)C)C2(O)CC1` (stereo not drawn), for which the T/C was 91 % of control (endpoint: mean survival time, dose: 100.0 mg/kg/injection, schedule: Q01DX009 (ip), vehicle: saline) and 93 % of control (endpoint: mean survival time, dose: 200.0 mg/kg/injection, schedule: Q01DX009 (ip), vehicle: saline).
As for `CCCCCCCCCCCCCCCCOC(=O)CC(=O)OCCCCCCCCCCCCCCCC`, the T/C is, setting by setting: (endpoint: mean survival time, dose: 100.0 mg/kg/injection, schedule: Q01DX001 (ip), vehicle: other) 86 % of control; (endpoint: mean survival time, dose: 200.0 mg/kg/injection, schedule: Q01DX001 (ip), vehicle: other) 100 % of control; (endpoint: mean survival time, dose: 400.0 mg/kg/injection, schedule: Q01DX001 (ip), vehicle: other) 108 % of control.
On to `Cc1nonc1-c1nc(SCC(=O)NN)n[nH]1`, for which the T/C is 102 % of control (endpoint: mean survival time, dose: 25.0 mg/kg/injection, schedule: Q04DX002 (ip), vehicle: Klucel (hydroxypropylcellulose) (HPC)) and 98 % of control (endpoint: mean survival time, dose: 50.0 mg/kg/injection, schedule: Q04DX002 (ip), vehicle: Klucel (hydroxypropylcellulose) (HPC)).
For the molecule `NC1=NC(CNC(=O)c2cccc([N+](=O)[O-])c2)N(c2cccc(Cl)c2)C(N)=N1` (stereo not drawn), the T/C (endpoint: mean survival time, dose: 50.0 mg/kg/injection, schedule: Q01DX Z (ip), vehicle: methylcellulose (MC)) is 93 % of control.
Consider `CCOC(=O)C1CC2CC(C1=O)C2(C)C` (stereo not drawn), for which the T/C runs as follows: under setting [2], 96 % of control; under setting [3], 101 % of control; under setting [4], 93 % of control.
For the molecule `O=P(N1CC1)(N1CC1)C12CC3CC(CC(C3)C1)C2`, the T/C is, setting by setting: (endpoint: mean survival time, dose: 25.0 mg/kg/injection, schedule: Q01DX009 (ip), vehicle: saline with Tween-80) 170 % of control; (endpoint: mean survival time, dose: 50.0 mg/kg/injection, schedule: Q01DX009 (ip), vehicle: saline with Tween-80) 243 % of control.
On to `Cc1ccc(NC(=O)Oc2ccc(-c3ccccc3)cc2Br)c(Br)c1`, for which the T/C runs as follows: under setting [5], 93 % of control; under setting [6], 94 % of control; under setting [7], 91 % of control.
Turning to `COC(=O)c1cc(C)cc(NS(=O)(=O)c2ccc(C)cc2)c1C`, the T/C runs as follows: (endpoint: mean survival time, dose: 50.0 mg/kg/injection, schedule: Q01DX001 (ip), vehicle: carboxymethylcellulose (CMC)) 89 % of control; under setting [8], 86 % of control; under setting [1], 94 % of control; (endpoint: mean survival time, dose: 400.0 mg/kg/injection, schedule: Q01DX001 (ip), vehicle: carboxymethylcellulose (CMC)) 89 % of control.
As for `CCCCCCCCCCC(=O)N(CC)CC`, the T/C runs as follows: under setting [9], 97 % of control and 92 % of control; (endpoint: mean survival time, dose: 100.0 mg/kg/injection, schedule: Q04DX002 (ip), vehicle: carboxymethylcellulose (CMC)) 94 % of control; under setting [10], 97 % of control and 100 % of control; (endpoint: mean survival time, dose: 200.0 mg/kg/injection, schedule: Q04DX002 (ip), vehicle: carboxymethylcellulose (CMC)) 96 % of control; under setting [11], 96 % of control; (endpoint: mean survival time, dose: 400.0 mg/kg/injection, schedule: Q04DX002 (ip), vehicle: carboxymethylcellulose (CMC)) 100 % of control.
As to `CC(C)C1=CC2=CCC3C(C)(CN)CCCC3(C)C2CC1CCN` (stereo not drawn), the T/C is, setting by setting: (endpoint: mean survival time, dose: 1.25 mg/kg/injection, schedule: Q04DX003 (ip), vehicle: saline) 100 % of control; (endpoint: mean survival time, dose: 2.5 mg/kg/injection, schedule: Q04DX003 (ip), vehicle: saline) 108 % of control; (endpoint: mean survival time, dose: 5.0 mg/kg/injection, schedule: Q04DX003 (ip), vehicle: saline with Tween-80) 96 % of control; (endpoint: mean survival time, dose: 5.0 mg/kg/injection, schedule: Q04DX003 (ip), vehicle: saline) 101 % of control.
As for `COC(C)(OC)C(N)=O`, the T/C is 96 % of control under setting [12]; 94 % of control under setting [13]; 111 % of control under setting [14]; 96 % of control under setting [15]; 98 % of control under setting [16]; 92 % of control under setting [17].
Take `Cc1cccc(NC(=O)c2cccc(C(=O)Nc3cccc(C)c3C)c2)c1C`: the T/C under setting [5] is 96 % of control; the T/C under setting [13] was 88 % of control; the T/C under setting [6] is 100 % of control; the T/C under setting [15] was 88 % of control; the T/C under setting [7] is 96 % of control; the T/C under setting [17] is 93 % of control.
As to `NC(=O)N=C(N)N`, the T/C was 92 % of control under setting [18], 90 % of control under setting [19] and 92 % of control under setting [20].
Regarding `CCc1ccc(C(=O)C2CC2)cc1`, the T/C under setting [12] was 102 % of control; the T/C under setting [2] was 93 % of control; the T/C under setting [14] was 104 % of control; the T/C under setting [3] was 96 % of control; the T/C under setting [16] was 110 % of control; the T/C under setting [4] was 96 % of control.
Turning to `CC(C)c1ccc(/C=N\[N+](C)(C)C)cc1`, the T/C is 101 % of control (endpoint: mean survival time, dose: 100.0 mg/kg/injection, schedule: Q04DX003 (ip), vehicle: saline) and 95 % of control (endpoint: mean survival time, dose: 200.0 mg/kg/injection, schedule: Q04DX003 (ip), vehicle: saline).
With `Nc1[nH]c(=O)[nH]c(=O)c1N=Nc1ccc(S(=O)(=O)Nc2ncccn2)cc1`, the T/C by setting is: under setting [18], 94 % of control; under setting [19], 98 % of control; under setting [20], 96 % of control.
`[Mn+2].[NH-]CC(=O)O.[NH-]CC(=O)O`: under setting [18], the T/C is 96 % of control.
For the molecule `CC(=O)NCCCCC(N)C(=O)O` (stereo not drawn), the T/C is 104 % of control (endpoint: mean survival time, dose: 50.0 mg/kg/injection, schedule: Q01DX001 (ip), vehicle: saline); 93 % of control under setting [18]; 93 % of control under setting [19]; 95 % of control under setting [20].
In the case of `C(=C\c1ccccn1)/c1ccc2c(c1)OCO2`, the T/C is, setting by setting: (endpoint: mean survival time, dose: 75.0 mg/kg/injection, schedule: Q01DX009 (ip), vehicle: saline) 93 % of control; under setting [18], 101 % of control; (endpoint: mean survival time, dose: 150.0 mg/kg/injection, schedule: Q01DX009 (ip), vehicle: saline) 93 % of control; under setting [19], 96 % of control; (endpoint: mean survival time, dose: 300.0 mg/kg/injection, schedule: Q01DX009 (ip), vehicle: saline) 88 % of control; under setting [20], 95 % of control.
Regarding `Nc1[nH]c(=O)ncc1F`, the T/C was 97 % of control under setting [8]; 102 % of control under setting [18]; 98 % of control under setting [9]; 104 % of control under setting [1]; 102 % of control under setting [19]; 103 % of control under setting [10]. In addition, the T/C is 100 % of control under setting [20]; 103 % of control under setting [11]; 102 % of control (endpoint: mean survival time, dose: 800.0 mg/kg/injection, schedule: Q01DX001 (ip), vehicle: saline); 104 % of control (endpoint: mean survival time, dose: 800.0 mg/kg/injection, schedule: Q01DX009 (ip), vehicle: carboxymethylcellulose (CMC)); 100 % of control (endpoint: median survival time, dose: 31.2 mg/kg/injection, schedule: Q03HX024 (ip), vehicle: water); 100 % of control (endpoint: median survival time, dose: 62.5 mg/kg/injection, schedule: Q03HX024 (ip), vehicle: water). The T/C is 100 % of control (endpoint: median survival time, dose: 125.0 mg/kg/injection, schedule: Q03HX024 (ip), vehicle: water); 105 % of control (endpoint: median survival time, dose: 250.0 mg/kg/injection, schedule: Q03HX024 (ip), vehicle: water); 100 % of control (endpoint: median survival time, dose: 250.0 mg/kg/injection, schedule: Q04DX003 (ip), vehicle: water); 100 % of control (endpoint: median survival time, dose: 500.0 mg/kg/injection, schedule: Q04DX003 (ip), vehicle: water); 100 % of control (endpoint: median survival time, dose: 1000.0 mg/kg/injection, schedule: Q04DX003 (ip), vehicle: water).
Take `O=C(Nc1cccc(F)c1)OCCOc1ccccc1`: the T/C runs as follows: (endpoint: mean survival time, dose: 100.0 mg/kg/injection, schedule: Q01DX009 (ip), vehicle: gum acacia) 93 % of control; (endpoint: mean survival time, dose: 200.0 mg/kg/injection, schedule: Q01DX009 (ip), vehicle: gum acacia) 102 % of control; (endpoint: mean survival time, dose: 400.0 mg/kg/injection, schedule: Q01DX009 (ip), vehicle: gum acacia) 96 % of control.
